Test results reported in ChEMBL document CHEMBL1201862, “PubChem BioAssay data set” (2004).
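Dose response: 5 concentrations. Exposure: 48 h. Format: 96-well plates. Endpoint: linear interpolation; highest concentration if not reached. GI50 marks 50% less growth.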 Calls of active or inactive are those of the source. Cut-off read from the data, not from the text of the source: active = GI50 up to about 1.1 µM and inactive = higher.

What was measured:
Assay in all cases: inhibition of tumour cell growth, NCI panel, 48 h
KM12 = system: KM12
HT-29 = system: HT-29
KM-20L2 = system: KM-20L2
RXF 393 = system: RXF 393
HCC 2998 = system: HCC 2998
SF-539 = system: SF-539
SF-295 = system: SF-295
UACC-62 = system: UACC-62
IGROV-1 = system: IGROV-1
MOLT-4 = system: MOLT-4
OVCAR-8 = system: OVCAR-8
786-0 = system: 786-0
COLO 205 = system: COLO 205
EKVX = system: EKVX
TK-10 = system: TK-10
OVCAR-5 = system: OVCAR-5
MCF7 = system: MCF7
MDA-MB-435 = system: MDA-MB-435
MDA-MB-231 = system: MDA-MB-231
T47D = system: T47D

SMILES | GI50 (KM12) | GI50 (HT-29) | GI50 (KM-20L2) | GI50 (RXF 393) | GI50 (HCC 2998) | GI50 (SF-539) | GI50 (SF-295) | GI50 (UACC-62) | GI50 (IGROV-1) | GI50 (MOLT-4) | GI50 (OVCAR-8) | GI50 (786-0) | GI50 (COLO 205) | GI50 (EKVX) | GI50 (TK-10) | GI50 (OVCAR-5) | GI50 (MCF7) | GI50 (MDA-MB-435) | GI50 (MDA-MB-231) | GI50 (T47D)
O=C(N/C(=C\c1ccc([N+](=O)[O-])cc1)c1nc2c(O)nc(S)nc2[nH]1)c1ccccc1 | > 100 µM (inactive) | > 100 µM (inactive) | > 100 µM (inactive) | > 100 µM (inactive) | > 100 µM (inactive) | > 100 µM (inactive) | > 100 µM (inactive) | > 100 µM (inactive) | > 100 µM (inactive) | 88.7 µM (inactive) | > 100 µM (inactive) | > 100 µM (inactive) | > 100 µM (inactive) | > 100 µM (inactive) | > 100 µM (inactive) | > 100 µM (inactive) |  |  |  | 
O=c1c2ccccc2c(=O)n2n1-c1cccc(c1)CSSCc1cccc-2c1 | > 10 µM (inactive) | > 10 µM (inactive) | > 100 µM (inactive) | > 100 µM (inactive) | > 10 µM (inactive) | > 10 µM (inactive) | 43.4 µM (inactive) | > 10 µM (inactive) | > 10 µM (inactive) | > 10 µM (inactive) | > 10 µM (inactive) | 58.3 µM (inactive) | > 10 µM (inactive) | > 10 µM (inactive) | > 10 µM (inactive) | > 10 µM (inactive) |  |  |  | 
O=C(O)C1=C(C(=O)Nc2ccccc2)C2C=CC1C2 (centres undefined) | > 100 µM (inactive) | > 100 µM (inactive) | > 100 µM (inactive) | > 100 µM (inactive) | > 100 µM (inactive) | > 100 µM (inactive) | > 100 µM (inactive) | > 100 µM (inactive) | > 100 µM (inactive) | > 100 µM (inactive) | > 100 µM (inactive) | > 100 µM (inactive) | > 100 µM (inactive) | > 100 µM (inactive) | > 100 µM (inactive) | > 100 µM (inactive) |  |  |  | 
O=C1CCCC2=C(N1)C(=O)C=CC2=O | 25.6 µM (inactive) | 42.8 µM (inactive) | > 100 µM (inactive) | 45 µM (inactive) | 60.8 µM (inactive) | 44.4 µM (inactive) | 41.7 µM (inactive) | 42.2 µM (inactive) | 43 µM (inactive) | 12.3 µM (inactive) | 47.4 µM (inactive) | 42.5 µM (inactive) | 23.8 µM (inactive) | 34.4 µM (inactive) | 42.4 µM (inactive) | 33.4 µM (inactive) | 18.8 µM (inactive) | 18.6 µM (inactive) | 16.7 µM (inactive) | 22 µM (inactive)
CCCCCCCCCCCCOC(=N)N1CCOCC1 | 5.53 µM (inactive) | 1.82 µM (inactive) | 3.43 µM (inactive) | 8.99 µM (inactive) | 10.5 µM (inactive) | 0.982 µM (active) | 17 µM (inactive) | 9.77 µM (inactive) | 12.6 µM (inactive) | 2 µM (inactive) | 16.4 µM (inactive) | 14.1 µM (inactive) | 1.75 µM (inactive) | 12.9 µM (inactive) | 16.8 µM (inactive) | 14.9 µM (inactive) |  |  |  | 
